Data from the supplement of paper PMC10307832.

Columns and labels:
Assay in all cases: relative viability (nuclei count vs DMSO), 5 days (fraction); higher = more cells survive
[1] = system: A-427
Outline: (§1)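 Medians of duplicate plates are given as relative viability. That measure is the nuclei count in treated wells divided by the count in vehicle wells. Counts were taken on 4× images of lung cancer cell lines in 1536-well plates, 5 days after pin-tool dosing the day after seeding with one drug alone or a fixed anchor-drug dose plus five library-drug doses (not always all listed) in √10 steps.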

[2] = system: NCI-H1915
Outline: as §1

[3] = system: HARA
Outline: as §1

[4] = system: NCI-H2405
Outline: as §1

[5] = system: NCI-H1993
Outline: as §1

[6] = system: RERF-LC-KJ
Outline: as §1

[7] = system: NCI-H838
Outline: as §1

[8] = system: LOU-NH91
Outline: as §1

[9] = system: LU99A
Outline: as §1

[10] = system: NCI-H1975
Outline: as §1

[11] = system: COR-L23
Outline: as §1

[12] = system: SW 1573
Outline: as §1

[13] = system: NCI-H1666
Outline: as §1

[14] = system: NCI-H1650
Outline: as §1

[15] = system: BEN
Outline: as §1

[16] = system: NCI-H2228
Outline: as §1

[17] = system: NCI-H1793
Outline: as §1

[18] = system: EKVX
Outline: as §1

[19] = system: NCI-H2023
Outline: as §1

[20] = system: NCI-H650
Outline: as §1

[21] = system: NCI-H460
Outline: as §1

[22] = system: NCI-H1395
Outline: as §1

Q: `COCC1(CO)C(=O)C2CCN1CC2` (stereo not drawn) [PRIMA-1MET] + COc1cccc2cc(-c3nc([C@H]4CC[C@H](C(=O)O)CC4)n4ncnc(N)c34)[nH]c12 [OSI-027] (partner 0.5 µM) was tested. Which relative viability ([1]; first compound 0.2 µM) did it give?
A: 0.284

Q: What about the relative viability ([1]; first compound 0.6325 µM) of the same compound?
A: 0.444

Q: And the relative viability ([1]; first compound 2 µM)?
A: 0.389

Q: What about the relative viability ([1]; first compound 6.325 µM) of the same compound?
A: 0.263

Q: What about the relative viability ([1]; first compound 20 µM) of the same compound?
A: 0.369

Q: And the relative viability ([2]; first compound 0.2 µM)?
A: 0.475

Q: What about the relative viability ([2]; first compound 0.6325 µM) of the same compound?
A: 0.582

Q: And the relative viability ([2]; first compound 6.325 µM)?
A: 0.443

Q: And the relative viability ([2]; first compound 20 µM)?
A: 0.578

Q: And the relative viability ([3]; first compound 0.2 µM)?
A: 0.463

Q: What about the relative viability ([3]; first compound 0.6325 µM) of the same compound?
A: 0.48

Q: And the relative viability ([3]; first compound 6.325 µM)?
A: 0.59

Q: What about the relative viability ([3]; first compound 20 µM) of the same compound?
A: 0.417

Q: And the relative viability ([4]; first compound 0.2 µM)?
A: 0.501

Q: What about the relative viability ([4]; first compound 0.6325 µM) of the same compound?
A: 0.653

Q: What about the relative viability ([4]; first compound 6.325 µM) of the same compound?
A: 0.591

Q: And the relative viability ([4]; first compound 20 µM)?
A: 0.499

Q: What about the relative viability ([5]; first compound 0.2 µM) of the same compound?
A: 0.569

Q: And the relative viability ([5]; first compound 0.6325 µM)?
A: 0.561

Q: What about the relative viability ([5]; first compound 2 µM) of the same compound?
A: 0.518

Q: What about the relative viability ([5]; first compound 6.325 µM) of the same compound?
A: 0.532

Q: And the relative viability ([5]; first compound 20 µM)?
A: 0.49

Q: And the relative viability ([6]; first compound 0.2 µM)?
A: 0.56

Q: What about the relative viability ([6]; first compound 0.6325 µM) of the same compound?
A: 0.625

Q: What about the relative viability ([6]; first compound 2 µM) of the same compound?
A: 0.54

Q: And the relative viability ([6]; first compound 6.325 µM)?
A: 0.662

Q: What about the relative viability ([6]; first compound 20 µM) of the same compound?
A: 0.588

Q: What about the relative viability ([7]; first compound 0.2 µM) of the same compound?
A: 0.428

Q: And the relative viability ([7]; first compound 0.6325 µM)?
A: 0.5

Q: What about the relative viability ([7]; first compound 2 µM) of the same compound?
A: 0.295

Q: And the relative viability ([7]; first compound 6.325 µM)?
A: 0.395

Q: What about the relative viability ([7]; first compound 20 µM) of the same compound?
A: 0.0935

Q: And the relative viability ([8]; first compound 0.2 µM)?
A: 0.806

Q: What about the relative viability ([8]; first compound 0.6325 µM) of the same compound?
A: 0.719

Q: And the relative viability ([8]; first compound 2 µM)?
A: 0.589

Q: What about the relative viability ([8]; first compound 6.325 µM) of the same compound?
A: 0.662

Q: And the relative viability ([8]; first compound 20 µM)?
A: 0.468

Q: What about the relative viability ([9]; first compound 0.2 µM) of the same compound?
A: 0.322

Q: And the relative viability ([9]; first compound 0.6325 µM)?
A: 0.29

Q: And the relative viability ([9]; first compound 2 µM)?
A: 0.292

Q: And the relative viability ([9]; first compound 6.325 µM)?
A: 0.268

Q: What about the relative viability ([9]; first compound 20 µM) of the same compound?
A: 0.0893

Q: What about the relative viability ([10]; first compound 0.2 µM) of the same compound?
A: 0.879

Q: And the relative viability ([10]; first compound 0.6325 µM)?
A: 0.62

Q: And the relative viability ([10]; first compound 2 µM)?
A: 0.604

Q: And the relative viability ([10]; first compound 6.325 µM)?
A: 0.777

Q: And the relative viability ([10]; first compound 20 µM)?
A: 0.738

Q: And the relative viability ([11]; first compound 0.2 µM)?
A: 0.892

Q: And the relative viability ([11]; first compound 0.6325 µM)?
A: 0.679

Q: And the relative viability ([11]; first compound 2 µM)?
A: 0.728

Q: What about the relative viability ([11]; first compound 6.325 µM) of the same compound?
A: 0.744

Q: And the relative viability ([11]; first compound 20 µM)?
A: 0.0162

Q: What about the relative viability ([12]; first compound 0.2 µM) of the same compound?
A: 0.622

Q: What about the relative viability ([12]; first compound 0.6325 µM) of the same compound?
A: 0.482

Q: And the relative viability ([12]; first compound 2 µM)?
A: 0.597

Q: What about the relative viability ([12]; first compound 6.325 µM) of the same compound?
A: 0.0316

Q: And the relative viability ([12]; first compound 20 µM)?
A: 0.032

Q: And the relative viability ([13]; first compound 0.2 µM)?
A: 0.791

Q: And the relative viability ([13]; first compound 0.6325 µM)?
A: 0.87

Q: What about the relative viability ([13]; first compound 2 µM) of the same compound?
A: 0.827

Q: And the relative viability ([13]; first compound 6.325 µM)?
A: 0.826

Q: And the relative viability ([13]; first compound 20 µM)?
A: 0.714

Q: And the relative viability ([14]; first compound 0.2 µM)?
A: 0.742

Q: And the relative viability ([14]; first compound 0.6325 µM)?
A: 0.664

Q: And the relative viability ([14]; first compound 2 µM)?
A: 0.483

Q: What about the relative viability ([14]; first compound 6.325 µM) of the same compound?
A: 0.636

Q: What about the relative viability ([14]; first compound 20 µM) of the same compound?
A: 0.0483

Q: And the relative viability ([15]; first compound 0.2 µM)?
A: 0.283

Q: What about the relative viability ([15]; first compound 0.6325 µM) of the same compound?
A: 0.304

Q: And the relative viability ([15]; first compound 6.325 µM)?
A: 0.287

Q: What about the relative viability ([15]; first compound 20 µM) of the same compound?
A: 0.336

Q: What about the relative viability ([16]; first compound 0.2 µM) of the same compound?
A: 0.578

Q: What about the relative viability ([16]; first compound 0.6325 µM) of the same compound?
A: 0.462

Q: And the relative viability ([16]; first compound 2 µM)?
A: 0.442

Q: And the relative viability ([16]; first compound 6.325 µM)?
A: 0.481

Q: And the relative viability ([16]; first compound 20 µM)?
A: 0.0285

Q: And the relative viability ([17]; first compound 0.2 µM)?
A: 0.255

Q: And the relative viability ([17]; first compound 0.6325 µM)?
A: 0.221

Q: What about the relative viability ([17]; first compound 6.325 µM) of the same compound?
A: 0.298

Q: What about the relative viability ([17]; first compound 20 µM) of the same compound?
A: 0.276

Q: What about the relative viability ([18]; first compound 0.2 µM) of the same compound?
A: 0.915

Q: And the relative viability ([18]; first compound 0.6325 µM)?
A: 0.723

Q: What about the relative viability ([18]; first compound 6.325 µM) of the same compound?
A: 0.78

Q: What about the relative viability ([18]; first compound 20 µM) of the same compound?
A: 0.695

Q: And the relative viability ([19]; first compound 0.2 µM)?
A: 0.453

Q: And the relative viability ([19]; first compound 0.6325 µM)?
A: 0.366

Q: And the relative viability ([19]; first compound 2 µM)?
A: 0.363

Q: And the relative viability ([19]; first compound 6.325 µM)?
A: 0.4

Q: And the relative viability ([19]; first compound 20 µM)?
A: 0.241

Q: What about the relative viability ([20]; first compound 0.2 µM) of the same compound?
A: 0.705

Q: And the relative viability ([20]; first compound 2 µM)?
A: 0.5

Q: What about the relative viability ([20]; first compound 6.325 µM) of the same compound?
A: 0.603

Q: What about the relative viability ([20]; first compound 20 µM) of the same compound?
A: 0.381

Q: And the relative viability ([21]; first compound 0.2 µM)?
A: 0.653

Q: And the relative viability ([21]; first compound 0.6325 µM)?
A: 0.624

Q: And the relative viability ([21]; first compound 2 µM)?
A: 0.487

Q: What about the relative viability ([21]; first compound 6.325 µM) of the same compound?
A: 0.323

Q: What about the relative viability ([21]; first compound 20 µM) of the same compound?
A: 0.0164

Q: What about the relative viability ([22]; first compound 0.2 µM) of the same compound?
A: 0.605

Q: And the relative viability ([22]; first compound 0.6325 µM)?
A: 0.492

Q: And the relative viability ([22]; first compound 2 µM)?
A: 0.647

Q: And the relative viability ([22]; first compound 6.325 µM)?
A: 0.659

Q: What about the relative viability ([22]; first compound 20 µM) of the same compound?
A: 0.6
